Test results taken from patent publication US20240238242A1, “EGCG buccal tablet and use thereof” (priority 2023, published 2024).
Where “and” joins values, the source holds several entries; their conditions need not be identical. Equal values may be shown once. Read-outs that look alike come from different tables or passages of the source.

System: Influenza A virus neuraminidase inhibitor-resistant strain (ZX-1109)
Assay type: cell-based
Conditions: for average inactivation efficiency against virus: ZX1109 virus, three experiments; for residual virus titer of EGCG+virus group (Karber method) / inactivation efficiency against the virus: ZX-1109 virus; for inactivation efficiency against the virus: single experiment

Structure (SMILES): O=C(O[C@@H]1Cc2c(O)cc(O)cc2O[C@@H]1c1cc(O)c(O)c(O)c1)c1cc(O)c(O)c(O)c1 [EGCG, Epigallocatechin gallate]
- CPE test (virus replication in the cell wells) (1 mM EGCG + ZX-1109 virus, 1 minute, third experiment, dilution factor 10^6, wells 1-10): − and +
- CPE test (virus replication in the cell wells) (1 mM EGCG + ZX-1109 virus, 1 minute, third experiment, dilution factor 10^7, wells 1-10): −
- CPE test (virus replication in the cell wells) (1 mM EGCG + ZX-1109 virus, 1 minute, third experiment, dilution factor 10^8, wells 1-10): −
- CPE test (virus replication in the cell wells) (1 mM EGCG + ZX-1109 virus, 5 minute, first experiment, dilution factor 10^2, wells 1-10): +
- CPE test (virus replication in the cell wells) (1 mM EGCG + ZX-1109 virus, 5 minute, first experiment, dilution factor 10^3, wells 1-10): +
- CPE test (virus replication in the cell wells) (1 mM EGCG + ZX-1109 virus, 5 minute, first experiment, dilution factor 10^4, wells 1-10): +
- CPE test (virus replication in the cell wells) (1 mM EGCG + ZX-1109 virus, 5 minute, first experiment, dilution factor 10^5, wells 1-10): + and −
- CPE test (virus replication in the cell wells) (1 mM EGCG + ZX-1109 virus, 5 minute, first experiment, dilution factor 10^6, wells 1-10): − and +
- CPE test (virus replication in the cell wells) (1 mM EGCG + ZX-1109 virus, 5 minute, first experiment, dilution factor 10^7, wells 1-10): − and +
- CPE test (virus replication in the cell wells) (1 mM EGCG + ZX-1109 virus, 5 minute, first experiment, dilution factor 10^8, wells 1-10): + and −
- CPE test (virus replication in the cell wells) (1 mM EGCG + ZX-1109 virus, 5 minute, second experiment, dilution factor 10^2, wells 1-10): +
- CPE test (virus replication in the cell wells) (1 mM EGCG + ZX-1109 virus, 5 minute, second experiment, dilution factor 10^3, wells 1-10): +
- CPE test (virus replication in the cell wells) (1 mM EGCG + ZX-1109 virus, 5 minute, second experiment, dilution factor 10^4, wells 1-10): +
- CPE test (virus replication in the cell wells) (1 mM EGCG + ZX-1109 virus, 5 minute, second experiment, dilution factor 10^5, wells 1-10): + and −
- CPE test (virus replication in the cell wells) (1 mM EGCG + ZX-1109 virus, 5 minute, second experiment, dilution factor 10^6, wells 1-10): − and +
- CPE test (virus replication in the cell wells) (1 mM EGCG + ZX-1109 virus, 5 minute, second experiment, dilution factor 10^7, wells 1-10): − and +
- CPE test (virus replication in the cell wells) (1 mM EGCG + ZX-1109 virus, 5 minute, second experiment, dilution factor 10^8, wells 1-10): − and +
- CPE test per cell well (1 mM EGCG + ZX-1109 virus, 5 minute, third experiment, dilution factor 10^2, wells 1-10): +
- CPE test per cell well (1 mM EGCG + ZX-1109 virus, 5 minute, third experiment, dilution factor 10^3, wells 1-10): +
- CPE test per cell well (1 mM EGCG + ZX-1109 virus, 5 minute, third experiment, dilution factor 10^4, wells 1-10): +
- CPE test per cell well (1 mM EGCG + ZX-1109 virus, 5 minute, third experiment, dilution factor 10^5, wells 1-10): − and +
- CPE test per cell well (1 mM EGCG + ZX-1109 virus, 5 minute, third experiment, dilution factor 10^6, wells 1-10): + and −
- CPE test per cell well (1 mM EGCG + ZX-1109 virus, 5 minute, third experiment, dilution factor 10^7, wells 1-10): − and +
- CPE test per cell well (1 mM EGCG + ZX-1109 virus, 5 minute, third experiment, dilution factor 10^8, wells 1-10): + and −
- average inactivation efficiency against virus (1 mM EGCG, 1 minute): 89.97%
- average inactivation efficiency against virus (1 mM EGCG, 5 minutes): 97.59%
- residual virus titer of EGCG+virus group (Karber method) (1 mM EGCG, 1 minute): 10^5 TCID50/50 μL
- inactivation efficiency against the virus (1 mM EGCG, 1 minute): 93.69% and 92.06% and 84.15%
- residual virus titer of EGCG+virus group (Karber method) (1 mM EGCG, 5 minutes): 10^6 TCID50/50 μL
- inactivation efficiency against the virus (1 mM EGCG, 5 minutes): 96.02% and 98.74% and 98.00%
- CPE test per cell well (5 mM EGCG + ZX1109 virus, 1 minute, second experiment, dilution factor 10^3, wells 1-10): +
- CPE test per cell well (5 mM EGCG + ZX1109 virus, 1 minute, second experiment, dilution factor 10^4, wells 1-10): + and −
- CPE test per cell well (5 mM EGCG + ZX1109 virus, 1 minute, second experiment, dilution factor 10^5, wells 1-10): − and +
- CPE test per cell well (5 mM EGCG + ZX1109 virus, 1 minute, second experiment, dilution factor 10^6, wells 1-10): −
- CPE test per cell well (5 mM EGCG + ZX1109 virus, 1 minute, second experiment, dilution factor 10^7, wells 1-10): −
- CPE test per cell well (5 mM EGCG + ZX1109 virus, 1 minute, second experiment, dilution factor 10^8, wells 1-10): −
- CPE test per cell well (5 mM EGCG + ZX-1109 virus, 1 minute, first experiment, dilution factor 10^2, wells 1-10): +
- CPE test per cell well (5 mM EGCG + ZX-1109 virus, 1 minute, first experiment, dilution factor 10^3, wells 1-10): +
- CPE test per cell well (5 mM EGCG + ZX-1109 virus, 1 minute, first experiment, dilution factor 10^4, wells 1-10): + and −
- CPE test per cell well (5 mM EGCG + ZX-1109 virus, 1 minute, first experiment, dilution factor 10^5, wells 1-10): + and −
- CPE test per cell well (5 mM EGCG + ZX-1109 virus, 1 minute, first experiment, dilution factor 10^6, wells 1-10): −
- CPE test per cell well (5 mM EGCG + ZX-1109 virus, 1 minute, first experiment, dilution factor 10^7, wells 1-10): −
- CPE test per cell well (5 mM EGCG + ZX-1109 virus, 1 minute, first experiment, dilution factor 10^8, wells 1-10): −
- CPE test (virus replication in the cell wells) (5 mM EGCG + ZX-1109 virus, 1 minute, third experiment, dilution factor 10^2, wells 1-10): +
- CPE test (virus replication in the cell wells) (5 mM EGCG + ZX-1109 virus, 1 minute, third experiment, dilution factor 10^3, wells 1-10): +
- CPE test (virus replication in the cell wells) (5 mM EGCG + ZX-1109 virus, 1 minute, third experiment, dilution factor 10^4, wells 1-10): + and −
- CPE test (virus replication in the cell wells) (5 mM EGCG + ZX-1109 virus, 1 minute, third experiment, dilution factor 10^5, wells 1-10): −
- CPE test (virus replication in the cell wells) (5 mM EGCG + ZX-1109 virus, 1 minute, third experiment, dilution factor 10^6, wells 1-10): −
- CPE test (virus replication in the cell wells) (5 mM EGCG + ZX-1109 virus, 1 minute, third experiment, dilution factor 10^7, wells 1-10): −
- CPE test (virus replication in the cell wells) (5 mM EGCG + ZX-1109 virus, 1 minute, third experiment, dilution factor 10^8, wells 1-10): −
- CPE test (virus replication in the cell wells) (5 mM EGCG + ZX-1109 virus, 5 minute, first experiment, dilution factor 10^3, wells 1-10): +
- CPE test (virus replication in the cell wells) (5 mM EGCG + ZX-1109 virus, 5 minute, first experiment, dilution factor 10^4, wells 1-10): + and −
- CPE test (virus replication in the cell wells) (5 mM EGCG + ZX-1109 virus, 5 minute, first experiment, dilution factor 10^5, wells 1-10): − and +
- CPE test (virus replication in the cell wells) (5 mM EGCG + ZX-1109 virus, 5 minute, first experiment, dilution factor 10^6, wells 1-10): − and +
- CPE test (virus replication in the cell wells) (5 mM EGCG + ZX-1109 virus, 5 minute, first experiment, dilution factor 10^7, wells 1-10): − and +
- CPE test (virus replication in the cell wells) (5 mM EGCG + ZX-1109 virus, 5 minute, first experiment, dilution factor 10^8, wells 1-10): −
- CPE test (virus replication in the cell wells) (5 mM EGCG + ZX-1109 virus, 5 minute, second experiment, dilution factor 10^3, wells 1-10): +
- CPE test (virus replication in the cell wells) (5 mM EGCG + ZX-1109 virus, 5 minute, second experiment, dilution factor 10^4, wells 1-10): − and +
- CPE test (virus replication in the cell wells) (5 mM EGCG + ZX-1109 virus, 5 minute, second experiment, dilution factor 10^5, wells 1-10): − and +
- CPE test (virus replication in the cell wells) (5 mM EGCG + ZX-1109 virus, 5 minute, second experiment, dilution factor 10^6, wells 1-10): −
- CPE test (virus replication in the cell wells) (5 mM EGCG + ZX-1109 virus, 5 minute, second experiment, dilution factor 10^7, wells 1-10): −
- CPE test (virus replication in the cell wells) (5 mM EGCG + ZX-1109 virus, 5 minute, second experiment, dilution factor 10^8, wells 1-10): −
- CPE test per cell well (5 mM EGCG + ZX-1109 virus, 5 minute, third experiment, dilution factor 10^3, wells 1-10): +
- CPE test per cell well (5 mM EGCG + ZX-1109 virus, 5 minute, third experiment, dilution factor 10^4, wells 1-10): − and +
- CPE test per cell well (5 mM EGCG + ZX-1109 virus, 5 minute, third experiment, dilution factor 10^5, wells 1-10): −
- CPE test per cell well (5 mM EGCG + ZX-1109 virus, 5 minute, third experiment, dilution factor 10^6, wells 1-10): −
- CPE test per cell well (5 mM EGCG + ZX-1109 virus, 5 minute, third experiment, dilution factor 10^7, wells 1-10): −
- CPE test per cell well (5 mM EGCG + ZX-1109 virus, 5 minute, third experiment, dilution factor 10^8, wells 1-10): −
- average inactivation efficiency against virus (5 mM EGCG, 1 minute): 93.73%
- average inactivation efficiency against virus (5 mM EGCG, 5 minutes): 99.86%
- inactivation efficiency against the virus (5 mM EGCG, 1 minute): 90.00% and 93.69% and 97.49%
- inactivation efficiency against the virus (5 mM EGCG, 5 minutes): 99.60% and 99.99%
